Results as given in patent US8530493B2, “Indolopyridines as Eg5 kinesin modulators” (4SC AG, priority 2006, dated 2013).

Legend:
[1] = system: RKO p27 uninduced (proliferating) colon adenocarcinoma cells; test: Alamar Blue cell viability assay, RKO p27 uninduced (proliferating); assay type: cell-based; settings: Homo sapiens, RKOp27, Table B1, anti-proliferative/cytotoxic activity, 72 hours, read-out: −log EC50 RKO p27 uninduced (proliferating) (converted)
Method: The anti-proliferative/cytotoxic activity of the compounds described herein can be tested on subclones of RKO human colon adenocarcinoma cells (Schmidt et al., Oncogene 19, 2423-2429; 2000) using the Alamar Blue cell viability assay (described in O'Brien et al. Eur J Biochem 267, 5421-5426, 2000). The compounds are dissolved as 10 mM solutions in DMSO and subsequently diluted in semi-logarithmic steps. DMSO dilutions are further diluted 1:100 into Dulbecco's modified Eagle's medium (DMEM) containing 10% fetal calf serum to a final concentration twice as much as the final concentration in the test. RKO subclones are seeded into 96 well flat bottom plates at a density of 4000 cells per well in a volume of 50 μl per well. 24 hours after seeding the 50 μl each of the compound dilutions in DMEM medium are added into each well of the 96 well plate. Each compound dilution is tested as triplicates. Wells containing untreated control cells are filled with 50 μl DMEM medium containing 1% DMSO. The cells are then incubated with the substances for 72 hours at 37° C. in a humidified atmosphere containing 5% carbon dioxide. To determine the viability of the cells, 10 μl of an Alamar Blue solution (Biosource) are added and the fluorescence is measured at an extinction of 544 nm and an emission of 590 nm. For the calculation of the cell viability the emission value from untreated cells is set as 100% viability and the emission rates of treated cells are set in relation to the values of untreated cells. Viabilities are expressed as % values. The Graphpad Prism program is used for the calculation of EC50 values for anti-proliferative/cytotoxic activity out of the obtained dose-response curves.
(§1) To determine the cell cycle specific mode of action, subclones of RKO colon adenocarcinoma cells (RKOp21 or RKOp27 as described by Schmidt et al. in Oncogene 19, 2423-2429; 2000) are seeded into 96 well flat bottom plates at a density of 16000 cells per well in a volume of 50 μl per well in DMEM growth medium with 10% FCS containing 10 μM Ponasterone A. 24 hours after seeding the 50 μl each of the compound dilutions in DMEM medium are added into each well of the 96-well plate. Each compound dilution is tested as triplicates. Wells containing untreated control cells are filled with 50 μl DMEM medium containing 1% DMSO. The cells are then incubated with the substances for 72 hours at 37° C. in a humidified atmosphere containing 5% carbon dioxide. To determine the viability of the cells, 10 μl of an Alamar Blue solution (Biosource) are added and the fluorescence is measured at an extinction of 544 nm and an emission of 590 nm. For the calculation of the cell viability the emission value from untreated cells is set as 100% viability and the emission rates of treated cells are set in relation to the values of untreated cells. Viabilities are expressed as % values. The Graphpad Prism program (GraphPad Software, Inc) is used for the calculation of EC50 values out of the obtained dose-response curves. Viability is compared of proliferating cells grown in the absence of the inducer Ponasterone A, versus viability of cells arrested by the expression of ectopic p27Kip1 induced by Ponasterone A.
(§2) Representative values for anti-proliferation/cytotoxicity [measured as −log EC50 (mol/l)] determined in the aforementioned assays follow from the following tables B1, B2 and B3, in which the numbers of the compounds correspond to the numbers of the examples.

[2] = system: RKO p27 induced (arrested) colon adenocarcinoma cells; test: Alamar Blue cell viability assay, RKO p27 induced by Ponasterone A (arrested); assay type: cell-based; settings: Homo sapiens, RKOp27, Table B1, cells arrested by Ponasterone A-induced p27Kip1, 72 hours, read-out: −log EC50 RKO p27 induced (arrested) (converted)
Method: as §1, §2

| SMILES | EC50 [2] | EC50 [1] |
| --- | --- | --- |
| CN1C(=O)N2[C@H](c3cccc(O)c3)c3[nH]c4ccc(Br)cc4c3C[C@@]2(C)C1=O (racemic) [Example 4, (3aSR,10RS)-6-Bromo-10-(3-hydroxy-phenyl)-2,3a-dimethyl-3a,4,9,10-tetrahydro-2,9,10a-triaza-cyclopenta[b]fluorene-1,3-dione] | ≥ 3160 nM | 39.8 to 251 nM |
| CCOc1ccc2[nH]c3c(c2c1)C[C@@]1(C)C(=O)N(C)C(=O)N1[C@@H]3c1cccc(O)c1 (racemic) [Example 1, (3aSR,10RS)-6-Ethoxy-10-(3-hydroxy-phenyl)-2,3a-dimethyl-3a,4,9,10-tetrahydro-2,9,10a-triaza-cyclopenta[b]fluorene-1,3-dione] | ≥ 3160 nM | 39.8 to 251 nM |
| CN1C(=O)N2[C@H](c3cccc(O)c3)c3[nH]c4ccc(Cl)cc4c3C[C@@]2(C)C1=O (racemic) [Example 5, (3aSR,10RS)-6-Chloro-10-(3-hydroxy-phenyl)-2,3a-dimethyl-3a,4,9,10-tetrahydro-2,9,10a-triaza-cyclopenta[b]fluorene-1,3-dione] | ≥ 3160 nM | 39.8 to 251 nM |
| CNCCN1C(=O)N2[C@H](c3cccc(O)c3)c3[nH]c4ccc(OC(F)F)cc4c3C[C@@]2(C)C1=O (racemic) [Example 42, (3aSR,10RS)-6-(1,1-Difluoro-methoxy)-10-(3-hydroxy-phenyl)-3a-methyl-2-(2-methylaminoethyl)-3a,4,9,10-tetrahydro-2,9,10a-triaza-cyclopenta[b]fluorene-1,3-dione] | ≥ 3160 nM | ≤ 39.8 nM |
| CC(C)N(C)CCN1C(=O)N2[C@H](c3cccc(O)c3)c3[nH]c4ccc(Cl)cc4c3C[C@@]2(C)C1=O (racemic) [Example 39, (3aSR,10RS)-6-Chloro-10-(3-hydroxy-phenyl)-2-[2-(isopropyl-methyl-amino)-ethyl]-3a-methyl-3a,4,9,10-tetrahydro-2,9,10a-triaza-cyclopenta[b]fluorene-1,3-dione] | ≥ 3160 nM | ≤ 39.8 nM |
| CCOc1ccc2[nH]c3c(c2c1)C[C@@]1(C)C(=O)N(CCN)C(=O)N1[C@@H]3c1cccc(O)c1 (racemic) [Example 45, (3aSR,10RS)-2-(2-Amino-ethyl)-6-ethoxy-10-(3-hydroxy-phenyl)-3a-methyl-3a,4,9,10-tetrahydro-2,9,10a-triaza-cyclopenta[b]fluorene-1,3-dione] | ≥ 316 nM | ≤ 39.8 nM |
| CCOc1ccc2[nH]c3c(c2c1)C[C@@]1(C)C(=O)N(CCNC)C(=O)N1[C@@H]3c1cccc(O)c1 (racemic) [Example 41, (3aSR,10RS)-6-Ethoxy-10-(3-hydroxy-phenyl)-3a-methyl-2-(2-methylamino-ethyl)-3a,4,9,10-tetrahydro-2,9,10a-triaza-cyclopenta[b]fluorene-1,3-dione] | ≥ 3160 nM | ≤ 39.8 nM |
| CC[C@@]12Cc3c([nH]c4ccc(OC)cc34)[C@@H](c3cccc(O)c3)N1C(=O)N(CCCN(C)C)C2=O (racemic) [Example 19, (3aSR,10RS)-2-(3-Dimethylamino-propyl)-3a-ethyl-10-(3-hydroxy-phenyl)-6-methoxy-3a,4,9,10-tetrahydro-2,9,10a-triaza-cyclopenta[b]fluorene-1,3-dione] | ≥ 3160 nM | ≤ 39.8 nM |
| COc1ccc2[nH]c3c(c2c1)C[C@@]1(C)C(=O)N(CCN2CCN(C(C)=O)CC2)C(=O)N1[C@@H]3c1cccc(O)c1 (racemic) [Example 32, (3aSR,10RS)-2-[2-(4-Acetyl-piperazin-1-yl)-ethyl]-10-(3-hydroxy-phenyl)-6-methoxy-3a-methyl-3a,4,9,10-tetrahydro-2,9,10a-triaza-cyclopenta[b]fluorene-1,3-dione] | ≥ 3160 nM | 39.8 to 251 nM |
| COCCOc1ccc2[nH]c3c(c2c1)C[C@@]1(C)C(=O)N(CCN(C)C)C(=O)N1[C@@H]3c1cccc(O)c1 (racemic) [Example 6, (3aSR,10RS)-2-(2-Dimethylamino-ethyl)-10-(3-hydroxy-phenyl)-6-(2-methoxy-ethoxy)-3a-methyl-3a,4,9,10-tetrahydro-2,9,10a-triaza-cyclopenta[b]fluorene-1,3-dione] | ≥ 3160 nM | ≤ 39.8 nM |
| CCN(C)CCN1C(=O)N2[C@H](c3cccc(O)c3)c3[nH]c4ccc(Cl)cc4c3C[C@@]2(C)C1=O (racemic) [Example 40, (3aSR,10RS)-6-Chloro-2-[2-(ethyl-methyl-amino)-ethyl]-10-(3-hydroxy-phenyl)-3a-methyl-3a,4,9,10-tetrahydro-2,9,10a-triaza-cyclopenta[b]fluorene-1,3-dione] | ≥ 3160 nM | ≤ 39.8 nM |

More lines, main results first:

| EC50 [2] | SMILES | EC50 [1] |
| --- | --- | --- |
| ≥ 3160 nM | COc1ccc2[nH]c3c(c2c1)C[C@@]1(C)C(=O)N(C)C(=O)N1[C@@H]3c1cccc(O)c1 (racemic) [Example 3, (3aSR,10RS)-10-(3-Hydroxy-phenyl)-6-methoxy-2,3a-dimethyl-3a,4,9,10-tetrahydro-2,9,10a-triaza-cyclopenta[b]fluorene-1,3-dione] | ≤ 39.8 nM |
| ≥ 3160 nM | COc1ccc2[nH]c3c(c2c1)C[C@@]1(C)C(=O)N(CCN)C(=O)N1[C@@H]3c1cccc(O)c1 (racemic) [Example 25, (3aSR,10RS)-2-(2-Amino-ethyl)-10-(3-hydroxy-phenyl)-6-methoxy-3a-methyl-3a,4,9,10-tetrahydro-2,9,10a-triaza-cyclopenta[b]fluorene-1,3-dione] | ≤ 39.8 nM |
| ≥ 3160 nM | COc1ccc2[nH]c3c(c2c1)C[C@@]1(C)C(=O)N(CCN(C)C)C(=O)N1[C@@H]3c1cccc(O)c1 (single isomer, unassigned) [Example 7b, (−)-2-(2-Dimethylamino-ethyl)-10-(3-hydroxy-phenyl)-6-methoxy-3a-methyl-3a,4,9,10-tetrahydro-2,9,10a-triaza-cyclopenta[b]fluorene-1,3-dione] | ≤ 39.8 nM |
| ≥ 3160 nM | COc1ccc2[nH]c3c(c2c1)C[C@@]1(C)C(=O)N(CCN(C)C)C(=O)N1[C@@H]3c1cccc(O)c1 (racemic) [Example 7, (3aSR,10RS)-2-(2-Dimethylamino-ethyl)-10-(3-hydroxy-phenyl)-6-methoxy-3a-methyl-3a,4,9,10-tetrahydro-2,9,10a-triaza-cyclopenta[b]fluorene-1,3-dione] | ≤ 39.8 nM |
| ≥ 3160 nM | COc1ccc2[nH]c3c(c2c1)C[C@@]1(C)C(=O)N(CCNCC(C)C)C(=O)N1[C@@H]3c1cccc(O)c1 (racemic) [Example 49, (3aSR,10RS)-10-(3-Hydroxy-phenyl)-2-(2-isobutylamino-ethyl)-6-methoxy-3a-methyl-3a,4,9,10-tetrahydro-2,9,10a-triaza-cyclopenta[b]fluorene-1,3-dione] | ≤ 39.8 nM |
| ≥ 3160 nM | CCNCCN1C(=O)N2[C@H](c3cccc(O)c3)c3[nH]c4ccc(OC)cc4c3C[C@@]2(C)C1=O (racemic) [Example 35, (3aSR,10RS)-2-(2-Ethylamino-ethyl)-10-(3-hydroxy-phenyl)-6-methoxy-3a-methyl-3a,4,9,10-tetrahydro-2,9,10a-triaza-cyclopenta[b]fluorene-1,3-dione] | ≤ 39.8 nM |
| ≥ 3160 nM | CCNCCCN1C(=O)N2[C@H](c3cccc(O)c3)c3[nH]c4ccc(OC)cc4c3C[C@@]2(C)C1=O (racemic) [Example 51, (3aSR,10RS)-2-(3-Ethylamino-propyl)-10-(3-hydroxy-phenyl)-6-methoxy-3a-methyl-3a,4,9,10-tetrahydro-2,9,10a-triaza-cyclopenta[b]fluorene-1,3-dione] | ≤ 39.8 nM |
| ≥ 3160 nM | COc1ccc2[nH]c3c(c2c1)C[C@@]1(C)C(=O)N(CCNC(C)C)C(=O)N1[C@@H]3c1cccc(O)c1 (racemic) [Example 47, (3aSR,10RS)-10-(3-Hydroxy-phenyl)-2-(2-isopropylamino-ethyl)-6-methoxy-3a-methyl-3a,4,9,10-tetrahydro-2,9,10a-triaza-cyclopenta[b]fluorene-1,3-dione] | ≤ 39.8 nM |
